The record followed here is patent US20230382904A1, “SUBSTITUTED 4-([1,2,4]TRIAZOLO[1,5-a]PYRIDIN-6-YL)THIOPHENE-2-CARBOXAMIDE DERIVATIVES AND USE THEREOF” (The Johns Hopkins University, priority 2020, published 2023).

Each structure is given as a SMILES string. Bounds are passed on as bounds.

As usually defined, the IC50 is the midpoint of a concentration-inhibition curve. Read a low IC50 as greater potency.

For assay [1], the target named is LZK (Homo sapiens (Human), UniProt O43283). Nature of the assay: LZK biochemical assay (TR-FRET, MKK7 phosphorylation). The essentials:
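Catalytic-domain LZK (10 nM) phosphorylated His-MKK7 (15 nM) with 15 μM ATP for 90 min at RT. Phospho-T275/S277 detected by Eu-anti-phospho-MKK7/XL665-anti-His TR-FRET after 16 h at 32° C, using the 665/Eu ratio. Buffer: 50 mM Hepes pH 7.5, 10 mM MgCl2, 1 mM DTT.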

Assay [2] addresses DLK (Homo sapiens (Human), UniProt Q12852). Nature of the assay: DLK biochemical assay (TR-FRET, MKK7 phosphorylation). In a few lines:
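Catalytic-domain DLK (10 nM) phosphorylates His-MKK7 (15 nM) with 60 μM ATP, 90 min at RT, in pH 7.5 HEPES buffer. Phospho-T275/S277 read by TR-FRET (Eu anti-phospho donor, XL665 anti-His acceptor) after 16 h detection, at 37° C. in 1536 or 4° C. in 384 format.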
A general note: In TR-FRET formats the signal depends on donor and acceptor labels being close together.

DLK, sequence (Q12852 1-520): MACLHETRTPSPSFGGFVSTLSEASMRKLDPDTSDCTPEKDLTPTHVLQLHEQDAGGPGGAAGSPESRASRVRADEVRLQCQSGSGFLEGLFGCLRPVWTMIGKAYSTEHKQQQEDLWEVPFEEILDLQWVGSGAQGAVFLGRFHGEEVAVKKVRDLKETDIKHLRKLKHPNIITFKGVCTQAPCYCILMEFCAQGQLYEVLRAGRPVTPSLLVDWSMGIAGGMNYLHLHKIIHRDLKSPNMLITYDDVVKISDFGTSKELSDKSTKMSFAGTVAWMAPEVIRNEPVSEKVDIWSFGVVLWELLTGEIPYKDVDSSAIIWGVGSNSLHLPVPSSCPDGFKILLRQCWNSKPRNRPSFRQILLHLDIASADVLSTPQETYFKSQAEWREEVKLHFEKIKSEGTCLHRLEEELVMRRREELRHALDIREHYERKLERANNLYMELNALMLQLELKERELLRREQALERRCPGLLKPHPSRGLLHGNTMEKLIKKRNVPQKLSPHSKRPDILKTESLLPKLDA
LZK, sequence (O43283 168-409): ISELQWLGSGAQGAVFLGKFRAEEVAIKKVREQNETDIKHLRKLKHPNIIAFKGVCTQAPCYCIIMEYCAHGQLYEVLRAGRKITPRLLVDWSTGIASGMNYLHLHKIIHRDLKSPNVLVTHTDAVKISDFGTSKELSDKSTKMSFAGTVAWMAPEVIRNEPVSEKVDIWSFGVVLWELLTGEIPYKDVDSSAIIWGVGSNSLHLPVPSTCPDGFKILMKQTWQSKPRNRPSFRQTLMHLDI

For `CC[C@H](NC(=O)c1cc(-c2cc(C(=O)N[C@@H](C)CO)c3nc(N)nn3c2)cs1)c1ccccc1` [Compound 77], the IC50 in assay [1] worked out at 36 nM; in assay [2] it was 1.8 nM.
The matching figures for `COc1cccc(CN(C)C(=O)c2cc(-c3ccc4nc(N)nn4c3)cs2)c1` [Compound 213]: 7600 nM and 2450 nM.
The matching figures for `Nc1nc2c(C(=O)NC3CC3)cc(-c3csc(C(=O)NCc4ccc(F)cc4)c3)cn2n1` [Compound 46]: 1200 nM and 360 nM.
On to `CC(NC(=O)c1cc(-c2ccc3nc(N)nn3c2)cs1)c1ccc(F)cc1` (stereo not shown) [Compound 303], for which the 50% inhibitory concentration (IC50) in assay [1] turned out to be 1800 nM; in assay [2], 130 nM.
`CC(NC(=O)c1cc(-c2ccc3nc(N)nn3c2)cs1)c1ccc(OCC(F)F)cc1` (stereo not shown) [Compound 357]: the IC50 in assay [1] is greater than 30000 nM; in assay [2], 210 nM.
Taken in the same sequence, the figures for `Nc1nc2c(C(=O)NC3COC3)cc(-c3csc(C(=O)NCc4ccccc4)c3)cn2n1` [Compound 64] were 7000 nM and 200 nM.
The matching figures for `CC(C)Oc1cccc(CNC(=O)c2cc(-c3ccc4nc(N)nn4c3)cs2)c1` [Compound 196]: 9490 nM and 350 nM.
Taken in the same sequence, the figures for `CC(NC(=O)c1cc(-c2csc(C(=O)N[C@@H](C)c3ccccc3)c2)cn2nc(N)nc12)C(F)(F)F` (mixture of isomers) [Compound 43] were 130 nM and 22 nM.
On to `CC[C@H](C)NC(=O)c1cc(-c2csc(C(=O)N[C@@H](COC)c3ccccc3)c2)cn2nc(N)nc12` [Compound 116], for which the IC50 in assay [1] turned out to be 14 nM; in assay [2], 2.2 nM.
The matching figures for `CC(NC(=O)c1cc(-c2ccc3nc(N)nn3c2)cs1)c1ccc(OC(F)(F)F)cc1` (stereo not shown) [Compound 361]: greater than 30000 nM and 1900 nM.
The matching figures for `C[C@H](NC(=O)c1cc(-c2cc(C(=O)NC3CNC(=O)C3)c3nc(N)nn3c2)cs1)c1ccc(F)cc1` (single isomer, unassigned) [Compound 47]: 3600 nM and 130 nM.
On to `COc1cccc(CNC(=O)c2cc(-c3cc(C(=O)NC4CCNC4)c4nc(N)nn4c3)cs2)c1` (stereo not shown) [Compound 37], for which the results for the IC50 in assay [1] and in assay [2] were 1250 nM and 220 nM, respectively.
Taken in the same sequence, the figures for `Nc1nc2c(C(=O)NC3CNC3)cc(-c3csc(C(=O)NCc4ccc(F)cc4)c3)cn2n1` [Compound 113] were 660 nM and 220 nM.
The matching figures for `COc1cccc(CNC(=O)c2cc(-c3cc(C(=O)N(C)C)c4nc(N)nn4c3)cs2)c1` [Compound 2]: greater than 30000 nM and 18000 nM.
Taken in the same sequence, the figures for `CC[C@H](C)NC(=O)c1cc(-c2csc(C(=O)NCc3ccccc3)c2)cn2nc(N)nc12` [Compound 87] were 48 nM and 11 nM.
For `Nc1nc2ccc(-c3csc(C(=O)NC4COC4)c3)cn2n1` [Compound 340], the IC50 in assay [1] was greater than 30000 nM; in assay [2] it was 4300 nM.
The matching figures for `Nc1nc2c(C(=O)NC3CC3)cc(-c3csc(C(=O)NCc4ccccc4)c3)cn2n1` [Compound 56]: 2300 nM and 120 nM.
The matching figures for `Nc1nc2ccc(-c3csc(C(=O)NC(c4ccccc4)C4CC4)c3)cn2n1` (stereo not shown) [Compound 346]: 29000 nM and 79 nM.
The matching figures for `COc1cccc(C(CCO)NC(=O)c2cc(-c3ccc4nc(N)nn4c3)cs2)c1` (stereo not shown) [Compound 290]: 7400 nM and 620 nM.
Regarding `COc1ccc([C@H](C)NC(=O)c2cc(-c3ccc4nc(N)nn4c3)cs2)cc1` [Compound 354], the IC50 in assay [1] is greater than 30000 nM; in assay [2], 110 nM.
The matching figures for `COc1ccc(C(C)(C)NC(=O)c2cc(-c3cc(C(=O)NC(C)C)c4nc(N)nn4c3)cs2)cc1` [Compound 124]: 330 nM and 17 nM.
`CC(NC(=O)c1cc(-c2ccc3nc(N)nn3c2)cs1)c1nccn1C` (stereo not shown) [Compound 350]: the IC50 in assay [1] worked out at 20500 nM; in assay [2], 760 nM.
Taken in the same sequence, the figures for `Nc1nc2ccc(-c3csc(C(=O)NC4CC4)c3)cn2n1` [Compound 172] were greater than 30000 nM and 2600 nM.
The matching figures for `Cc1nc(C(C)NC(=O)c2cc(-c3ccc4nc(N)nn4c3)cs2)sc1C` (stereo not shown) [Compound 334]: 5800 nM and 400 nM.
Consider `COC[C@H](C)NC(=O)c1cc(-c2csc(C(=O)N[C@@H](C)c3ccccc3)c2)cn2nc(N)nc12` [Compound 70], for which the concentration for half-maximal inhibition (IC50) in assay [1] stood at 1400 nM; in assay [2] it was 76 nM.
The matching figures for `C[C@H](NC(=O)c1cc(-c2ccc3nc(N)nn3c2)cs1)c1ccc(Cl)cc1` [Compound 355]: greater than 30000 nM and 210 nM.
The matching figures for `Cc1sc(C(=O)NCc2ccccc2)cc1-c1ccc2nc(N)nn2c1` [Compound 320]: greater than 30000 nM and greater than 30000 nM.
The matching figures for `C[C@H](NC(=O)c1cc(-c2cc(C(=O)N[C@@H](C)CO)c3nc(N)nn3c2)cs1)c1ccccc1` [Compound 25]: 61 nM and 4.61 nM.
Turning to `C[C@H](NC(=O)c1cc(-c2cc(C(=O)N[C@H]3CCOC3)c3nc(N)nn3c2)cs1)c1ccccc1` [Compound 102], the values for the IC50 in assay [1] and in assay [2] were 71 nM and 4.3 nM, respectively.
The matching figures for `CC(NC(=O)c1cc(-c2csc(C(=O)N[C@@H](C)c3ccccc3)c2)cn2nc(N)nc12)C(F)(F)F` (single isomer, unassigned) [Compound 72]: 6200 nM and 89 nM.
Taken in the same sequence, the figures for `Nc1nc2ccc(-c3csc(C(=O)NC(c4ccccc4)C4CC4)c3)cn2n1` (stereo not shown) [Compound 347] were greater than 30000 nM and 130 nM.
In the case of `CNC(=O)c1cc(-c2csc(C(=O)NCc3cccc(OC)c3)c2)cn2nc(N)nc12` [Compound 8], the IC50 in assay [1] is 2200 nM; in assay [2] it was 140 nM.
Taken in the same sequence, the figures for `Nc1nc2c(C(=O)N[C@H](CO)C(F)(F)F)cc(-c3csc(C(=O)NCc4ccc(F)cc4)c3)cn2n1` [Compound 111] were 290 nM and 44 nM.
The matching figures for `CCNC(=O)c1cc(-c2csc(C(=O)NCc3ccc(F)cc3)c2)cn2nc(N)nc12` [Compound 7]: 480 nM and 87 nM.
With `CC(C)NC(=O)c1cc(-c2csc(C(=O)N[C@H](C)c3ccc(F)cc3)c2)cc2nc(N)nn12` [Compound 153], the figures for the IC50 in assay [1] and in assay [2] were 280 nM and 32 nM, respectively.
With `C[C@H](NC(=O)c1cc(-c2cc(C(=O)NC(C)(C)CO)c3nc(N)nn3c2)cs1)c1ccccc1` [Compound 79], the concentration for half-maximal inhibition (IC50) in assay [1] amounted to 210 nM; in assay [2] it was 11.5 nM.
Taken in the same sequence, the figures for `Nc1nc2ccc(-c3csc(C(=O)NCC4CCCC4)c3)cn2n1` [Compound 190] were greater than 30000 nM and 530 nM.
Taken in the same sequence, the figures for `Nc1nc2ccc(-c3csc(C(=O)NCc4nc(C(F)(F)F)cs4)c3)cn2n1` [Compound 245] were greater than 30000 nM and 1300 nM.
The matching figures for `Nc1nc2ccc(-c3csc(C(=O)NC4CCOc5ccc(F)cc54)c3)cn2n1` (stereo not shown) [Compound 315]: 4800 nM and 130 nM.
With `COc1cccc(CNC(=O)c2cc(-c3cc(C)c4nc(N)nn4c3)cs2)c1` [Compound 372], the IC50 in assay [1] is 9200 nM; in assay [2] it was 430 nM.
The matching figures for `COc1cccc(CNC(=O)c2cc(-c3ccn4nc(N)nc4c3)cs2)c1` [Compound 364]: 19000 nM and 400 nM.
Regarding `Nc1nc2ccc(-c3csc(C(=O)NCCCc4ccccc4)c3)cn2n1` [Compound 215], the IC50 amounted to 30000 nM in assay [1] and 720 nM in assay [2].
The matching figures for `Cc1c(-c2ccc3nc(N)nn3c2)csc1C(=O)NCc1ccc(F)cc1` [Compound 352]: greater than 30000 nM and 1000 nM.
In the case of `Nc1nc2ccc(-c3csc(C(=O)NC4CCCc5cc(F)ccc54)c3)cn2n1` (stereo not shown) [Compound 318], the half-inhibitory concentration (IC50) is 1700 nM in assay [1] and 130 nM in assay [2].
As to `CC(NC(=O)c1cc(-c2ccc3nc(N)nn3c2)cs1)c1ccc(C(C)(C)C)cc1` (stereo not shown) [Compound 348], the IC50 in assay [1] and in assay [2] was 30000 nM each time.
For the compound `CC[C@H](NC(=O)c1cc(-c2cc(C(=O)NC3CCC3)c3nc(N)nn3c2)cs1)c1ccc(F)cc1` [Compound 137], the results for the half-inhibitory concentration (IC50) in assay [1] and in assay [2] were 300 nM and 9.7 nM, respectively.
The matching figures for `CC(C)c1ccccc1NC(=O)c1cc(-c2ccc3nc(N)nn3c2)cs1` [Compound 293]: greater than 30000 nM and 260 nM.
As for `COC[C@H](C)NC(=O)c1cc(-c2csc(C(=O)NCc3ccc(F)cc3)c2)cn2nc(N)nc12` [Compound 68], the IC50 came out at 1600 nM in assay [1] and 300 nM in assay [2].
Consider `C[C@@H](CO)NC(=O)c1cc(-c2csc(C(N)=O)c2)cn2nc(N)nc12` [Compound 86], for which the figures for the IC50 in assay [1] and in assay [2] were 1100 nM and 360 nM, respectively.
Taken in the same sequence, the figures for `Nc1nc2ccc(-c3csc(C(=O)Nc4ccccc4OC(F)(F)F)c3)cn2n1` [Compound 286] were greater than 30000 nM and 600 nM.
The matching figures for `COc1ccc(CNC(=O)c2cc(-c3ccc4nc(N)nn4c3)cs2)cc1` [Compound 203]: 13000 nM and 1010 nM.
Turning to `COC[C@H](C)NC(=O)c1cc(-c2csc(C(=O)NCc3ccccc3)c2)cn2nc(N)nc12` [Compound 67], the IC50 came out at 1700 nM in assay [1] and 200 nM in assay [2].
The matching figures for `C[C@H](NC(=O)c1cc(-c2cc(C(F)(F)F)c3nc(N)nn3c2)cs1)c1ccccc1` [Compound 376]: 4900 nM and 260 nM.
